# Values joined by “and” are separate entries in the source; they are usually repeats but may differ in a detail not shown here. Equal values may be shown once. Read-outs that look alike come from different tables or passages of the source.
# Experiments:
# D2S (h) = D2S (h) (Homo sapiens, UniProt P14416)
# 5-HT5a (h) = 5-HT5a (h) (Homo sapiens, UniProt P47898)
# 5-HT7 (h) = 5-HT7 (h) (Homo sapiens, UniProt P34969)
# 5-HT1B = 5-HT1B (Rattus norvegicus, UniProt P28564)
# 5-HT6 (h) = 5-HT6 (h) (Homo sapiens, UniProt P50406)
# 5-HT3 (h) = 5-HT3 (h) (Homo sapiens, UniProt P46098)
# H2 (h) = H2 (h) (Homo sapiens, UniProt P25021)
# M3 (h) = M3 (h) (Homo sapiens, UniProt P20309)
# CB1 (h) = CB1 (h) (Homo sapiens, UniProt P21554)
# beta 1 (h) = beta 1 (h) (Homo sapiens, UniProt P08588)
# NK2 (h) = NK2 (h) (Homo sapiens, UniProt P21452)
# B2 (h) = B2 (h) (Homo sapiens, UniProt P30411)
# M2 (h) = M2 (h) (Homo sapiens, UniProt P08172)
# D1 (h) = D1 (h) (Homo sapiens, UniProt P21728)
# MT1 (ML1A) (h) = MT1 (ML1A) (h) (Homo sapiens, UniProt P48039)
# physchem [1] = conditions: D2O
# in vivo = conditions: mouse, 5 mg/kg; for half-life: Terminal Half-Life
# physchem [2] = test: physchem
# [3] = mouse, in vivo; for AUC / Cmax / Terminal Half-Life: 5 mg/kg
# AT1 (h) = AT1 (h) (Homo sapiens, UniProt P30556)
# 5-HT1A (h) = 5-HT1A (h) (Homo sapiens, UniProt P08908)
# NK3 (h) = NK3 (h) (Homo sapiens, UniProt P29371)
# 5-HT2A (h) = 5-HT2A (h) (Homo sapiens, UniProt P28223)
# A3 (h) = A3 (h) (Homo sapiens, UniProt P0DMS8)
# [4] = iv, IV 5 mg/kg, individual animals 2, 3, 4
# [5] = po, PO 5 mg/kg, individual animals 6, 7, 8
# Chain of D2S (h) (P14416 1-414 isoform P14416-2): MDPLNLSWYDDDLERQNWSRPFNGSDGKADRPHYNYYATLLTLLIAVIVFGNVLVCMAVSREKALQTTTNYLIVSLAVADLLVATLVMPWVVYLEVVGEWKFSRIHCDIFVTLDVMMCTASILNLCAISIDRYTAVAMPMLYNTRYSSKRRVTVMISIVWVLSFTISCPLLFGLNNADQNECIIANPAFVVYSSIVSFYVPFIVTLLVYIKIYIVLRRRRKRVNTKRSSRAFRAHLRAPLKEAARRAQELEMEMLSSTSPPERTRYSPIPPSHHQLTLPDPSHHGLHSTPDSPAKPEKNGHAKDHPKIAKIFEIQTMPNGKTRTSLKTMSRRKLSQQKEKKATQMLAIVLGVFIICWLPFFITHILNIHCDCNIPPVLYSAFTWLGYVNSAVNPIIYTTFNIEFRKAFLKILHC
# Chain of 5-HT3 (h) (P46098 24-478): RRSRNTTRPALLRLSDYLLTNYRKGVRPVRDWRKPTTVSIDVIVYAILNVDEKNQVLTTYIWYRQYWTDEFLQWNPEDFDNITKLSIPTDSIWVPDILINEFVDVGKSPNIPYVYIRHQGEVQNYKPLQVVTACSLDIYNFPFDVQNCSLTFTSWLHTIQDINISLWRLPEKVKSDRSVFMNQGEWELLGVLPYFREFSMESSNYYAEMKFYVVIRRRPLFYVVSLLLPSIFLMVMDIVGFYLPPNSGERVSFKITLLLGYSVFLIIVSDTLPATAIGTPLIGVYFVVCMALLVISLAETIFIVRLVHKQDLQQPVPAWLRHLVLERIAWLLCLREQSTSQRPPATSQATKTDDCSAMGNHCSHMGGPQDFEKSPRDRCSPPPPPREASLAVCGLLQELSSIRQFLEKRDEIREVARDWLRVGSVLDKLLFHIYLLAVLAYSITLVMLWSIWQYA
# Chain of beta 1 (h) (P08588 whole entry): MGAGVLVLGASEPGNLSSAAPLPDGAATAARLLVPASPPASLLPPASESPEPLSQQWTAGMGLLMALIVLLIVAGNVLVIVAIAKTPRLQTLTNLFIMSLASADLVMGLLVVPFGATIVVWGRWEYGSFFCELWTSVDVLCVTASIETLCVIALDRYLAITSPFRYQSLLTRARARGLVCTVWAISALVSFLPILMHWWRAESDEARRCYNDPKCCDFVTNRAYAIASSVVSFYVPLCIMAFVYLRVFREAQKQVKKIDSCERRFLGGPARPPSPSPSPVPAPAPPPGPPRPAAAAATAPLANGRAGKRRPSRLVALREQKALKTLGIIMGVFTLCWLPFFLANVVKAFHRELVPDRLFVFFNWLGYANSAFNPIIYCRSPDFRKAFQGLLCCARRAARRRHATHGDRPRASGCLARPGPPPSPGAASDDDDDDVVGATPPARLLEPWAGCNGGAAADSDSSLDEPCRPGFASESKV
# Chain of M3 (h) (P20309 whole entry): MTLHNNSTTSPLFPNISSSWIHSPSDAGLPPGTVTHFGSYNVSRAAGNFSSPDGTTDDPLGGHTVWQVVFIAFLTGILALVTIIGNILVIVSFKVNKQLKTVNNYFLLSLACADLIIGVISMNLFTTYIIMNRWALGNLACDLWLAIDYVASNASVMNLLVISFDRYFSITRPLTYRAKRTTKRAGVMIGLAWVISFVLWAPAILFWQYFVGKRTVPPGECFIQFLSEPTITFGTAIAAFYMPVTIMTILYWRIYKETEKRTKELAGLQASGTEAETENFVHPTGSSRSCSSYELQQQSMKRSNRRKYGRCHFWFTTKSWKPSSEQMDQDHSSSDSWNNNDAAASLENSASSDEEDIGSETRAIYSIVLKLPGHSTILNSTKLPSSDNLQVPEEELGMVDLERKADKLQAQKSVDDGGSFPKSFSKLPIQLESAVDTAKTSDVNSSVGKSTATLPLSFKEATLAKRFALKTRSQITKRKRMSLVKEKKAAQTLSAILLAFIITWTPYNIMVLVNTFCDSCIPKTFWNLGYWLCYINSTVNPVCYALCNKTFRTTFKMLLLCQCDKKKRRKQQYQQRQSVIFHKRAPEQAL
# Chain of 5-HT1A (h) (P08908 whole entry): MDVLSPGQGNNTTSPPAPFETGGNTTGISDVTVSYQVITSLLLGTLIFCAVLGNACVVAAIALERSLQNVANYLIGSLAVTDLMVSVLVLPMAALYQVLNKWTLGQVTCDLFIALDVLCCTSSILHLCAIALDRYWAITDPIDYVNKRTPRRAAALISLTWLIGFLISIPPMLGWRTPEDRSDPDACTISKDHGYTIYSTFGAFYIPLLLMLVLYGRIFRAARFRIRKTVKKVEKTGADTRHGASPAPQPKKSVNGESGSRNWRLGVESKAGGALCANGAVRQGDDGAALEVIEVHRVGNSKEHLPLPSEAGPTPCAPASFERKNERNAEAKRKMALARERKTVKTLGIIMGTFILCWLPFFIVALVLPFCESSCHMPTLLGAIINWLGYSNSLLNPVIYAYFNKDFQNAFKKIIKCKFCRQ
# Chain of 5-HT5a (h) (P47898 whole entry): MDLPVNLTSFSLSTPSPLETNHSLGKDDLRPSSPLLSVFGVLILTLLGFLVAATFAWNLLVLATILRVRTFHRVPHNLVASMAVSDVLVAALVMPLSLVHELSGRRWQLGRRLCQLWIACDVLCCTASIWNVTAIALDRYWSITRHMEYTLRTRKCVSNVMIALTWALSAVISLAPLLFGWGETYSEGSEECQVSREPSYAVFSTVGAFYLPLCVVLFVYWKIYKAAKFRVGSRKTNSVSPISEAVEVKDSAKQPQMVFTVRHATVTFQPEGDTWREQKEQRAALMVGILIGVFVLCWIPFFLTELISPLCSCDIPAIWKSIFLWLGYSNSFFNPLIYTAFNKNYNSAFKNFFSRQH
# Chain of D1 (h) (P21728 whole entry): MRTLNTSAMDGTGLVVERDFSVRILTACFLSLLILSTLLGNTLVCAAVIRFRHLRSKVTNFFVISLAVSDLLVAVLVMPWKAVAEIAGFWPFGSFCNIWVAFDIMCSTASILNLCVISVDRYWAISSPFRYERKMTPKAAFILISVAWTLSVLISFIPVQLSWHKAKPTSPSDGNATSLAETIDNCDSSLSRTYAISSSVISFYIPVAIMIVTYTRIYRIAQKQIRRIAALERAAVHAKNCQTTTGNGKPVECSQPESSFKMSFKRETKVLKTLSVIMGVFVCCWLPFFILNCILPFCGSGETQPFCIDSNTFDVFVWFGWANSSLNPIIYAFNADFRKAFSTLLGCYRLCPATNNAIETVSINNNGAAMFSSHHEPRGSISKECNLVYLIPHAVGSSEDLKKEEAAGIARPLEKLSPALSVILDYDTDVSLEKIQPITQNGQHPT
# Chain of NK2 (h) (P21452 whole entry): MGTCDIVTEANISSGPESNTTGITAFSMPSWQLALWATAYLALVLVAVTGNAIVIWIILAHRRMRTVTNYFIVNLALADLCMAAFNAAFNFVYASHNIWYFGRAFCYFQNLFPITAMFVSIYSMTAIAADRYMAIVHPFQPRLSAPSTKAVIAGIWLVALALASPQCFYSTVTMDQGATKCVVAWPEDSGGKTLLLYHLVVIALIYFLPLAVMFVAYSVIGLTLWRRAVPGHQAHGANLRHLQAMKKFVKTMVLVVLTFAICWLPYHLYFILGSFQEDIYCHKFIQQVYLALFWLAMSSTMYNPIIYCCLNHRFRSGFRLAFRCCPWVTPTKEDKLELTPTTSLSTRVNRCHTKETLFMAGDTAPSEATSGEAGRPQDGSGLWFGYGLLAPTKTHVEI
# Chain of CB1 (h) (P21554 whole entry): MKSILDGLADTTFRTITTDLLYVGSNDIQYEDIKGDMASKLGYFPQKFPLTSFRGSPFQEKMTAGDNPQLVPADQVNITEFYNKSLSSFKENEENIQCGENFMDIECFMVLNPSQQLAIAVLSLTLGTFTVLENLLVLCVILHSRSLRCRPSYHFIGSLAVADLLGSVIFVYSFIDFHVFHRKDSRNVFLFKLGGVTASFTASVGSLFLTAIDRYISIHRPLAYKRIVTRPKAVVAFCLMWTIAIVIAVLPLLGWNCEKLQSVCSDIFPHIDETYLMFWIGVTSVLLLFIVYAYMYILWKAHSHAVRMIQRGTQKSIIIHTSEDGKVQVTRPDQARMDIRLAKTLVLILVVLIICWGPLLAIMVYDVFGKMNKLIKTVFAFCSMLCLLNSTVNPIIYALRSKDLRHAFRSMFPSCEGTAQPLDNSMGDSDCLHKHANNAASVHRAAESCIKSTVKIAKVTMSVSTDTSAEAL
# Chain of B2 (h) (P30411 whole entry): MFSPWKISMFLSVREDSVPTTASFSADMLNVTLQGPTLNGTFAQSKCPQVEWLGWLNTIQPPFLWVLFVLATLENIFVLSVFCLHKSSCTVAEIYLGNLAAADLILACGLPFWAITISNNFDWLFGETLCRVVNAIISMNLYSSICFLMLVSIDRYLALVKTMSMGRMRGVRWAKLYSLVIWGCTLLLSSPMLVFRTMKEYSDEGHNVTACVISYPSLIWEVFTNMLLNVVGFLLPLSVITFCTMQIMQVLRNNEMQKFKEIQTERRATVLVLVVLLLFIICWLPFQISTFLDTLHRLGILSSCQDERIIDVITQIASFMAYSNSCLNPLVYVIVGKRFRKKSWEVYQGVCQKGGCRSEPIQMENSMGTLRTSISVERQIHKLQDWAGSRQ
# Chain of 5-HT1B (P28564 whole entry): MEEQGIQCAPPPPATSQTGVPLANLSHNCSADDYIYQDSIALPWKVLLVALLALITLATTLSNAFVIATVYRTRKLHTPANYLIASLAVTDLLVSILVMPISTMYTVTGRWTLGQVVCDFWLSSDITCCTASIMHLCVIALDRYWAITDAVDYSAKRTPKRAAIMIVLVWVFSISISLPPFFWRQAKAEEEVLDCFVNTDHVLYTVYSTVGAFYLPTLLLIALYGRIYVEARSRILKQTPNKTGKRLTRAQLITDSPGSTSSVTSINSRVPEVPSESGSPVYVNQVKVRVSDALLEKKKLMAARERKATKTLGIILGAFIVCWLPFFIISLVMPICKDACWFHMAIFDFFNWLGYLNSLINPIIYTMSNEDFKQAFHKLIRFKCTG
compound,measurement,setting,value
(+)butaclamol,nH Ref,D2S (h),1.3
NCCc1c[nH]c2ccc(O)cc12 [serotonin],nH Ref,5-HT5a (h),0.7
same,nH Ref,5-HT7 (h),0.6
same,nH Ref,5-HT1B,1.2
same,nH Ref,5-HT6 (h),0.8
CN1[C@@H]2CC[C@H]1C[C@@H](OC(=O)c1cc(Cl)cc(Cl)c1)C2 [MDL 72222],nH Ref,5-HT3 (h),1.1
CN/C(=N/CCSCc1nc[nH]c1C)NC#N [cimetidine],nH Ref,H2 (h),0.9
"C[N+]1(C)CCC(OC(=O)C(c2ccccc2)c2ccccc2)CC1.[I-] [Compound 4-DAMP, 4-DAMP]",nH Ref,M3 (h),1.3
CCCCCCC(C)(C)c1ccc([C@@H]2C[C@H](O)CC[C@H]2CCCO)c(O)c1 [CP 55940],nH Ref,CB1 (h),0.8
CC(C)NCC(O)COc1ccc(CC(N)=O)cc1 (centres unmarked) [atenolol],nH Ref,beta 1 (h),0.9
CCCC[C@H](NC(=O)[C@H](CC(C)C)NC(=O)CNC(=O)[C@@H](NC(=O)[C@H](Cc1ccccc1)NC(=O)[C@H](CO)NC(=O)[C@@H](N)CC(=O)O)C(C)C)C(N)=O [[Nleu10]-NKA (4-10)],nH Ref,NK2 (h),0.9
N=C(N)NCCC[C@@H](N)C(=O)N[C@@H](CCCNC(=N)N)C(=O)N1CCC[C@H]1C(=O)N1C[C@H](O)C[C@H]1C(=O)NCC(=O)N[C@@H](Cc1ccccc1)C(=O)N[C@@H](CO)C(=O)N[C@H](Cc1ccccc1)C(=O)N[C@@H](Cc1ccccc1)C(=O)N[C@@H](CCCNC(=N)N)C(=O)O [NPC 567],nH Ref,B2 (h),0.8
COc1ccccc1CNCCCCCCNCCCCCCCCNCCCCCCNCc1ccccc1OC [methoctramine],nH Ref,M2 (h),0.8
CN1CCc2cc(Cl)c(O)cc2[C@@H](c2ccccc2)C1 [SCH 23390],nH Ref,D1 (h),0.9
COc1ccc2[nH]cc(CCNC(C)=O)c2c1 [melatonin],nH Ref,MT1 (ML1A) (h),1.3
"Cn1cc(CCn2cnc(-c3cnn(C)c3)c2-c2ccc(C#N)cc2)cn1 [Compound 13, 4-(4-(1-methyl-1H-pyrazol-4-yl)-1-(2-(1-methyl-1H-pyrazol-4-yl)ethyl)-1H-imidazol-5-yl)benzonitrile]",solubility at 24 h,physchem [1],25 mM
same,Cmax,in vivo; [4],9.53 µM
same,half-life,in vivo; [4],50.9 min
same,Tmax,"in vivo; iv, Tmax, IV 5 mg/kg, individual animals 2, 3, 4",4.98 min
same,bioavailability,in vivo; po,70%
same,Cmax,in vivo; [5],6.46 µM
same,half-life,in vivo; [5],45.4 min
same,logD,physchem [2],1.05
same,volume of distribution,[3],moderate
same,AUC,[3]; iv,5.875 µM·h and 7.614 µM·h
same,Cmax,[3]; iv,10.4 µM and 13.8 µM
same,Terminal Half-Life,[3]; iv,59.8 min and 56.6 min
same,AUC,[3]; po,5.161 µM·h and 4.542 µM·h
same,Cmax,[3]; po,6.12 µM and 4.88 µM
same,Terminal Half-Life,[3]; po,68.4 min and 49.3 min
CNCC(=O)N[C@@H](CCCN=C(N)N)C(=O)N[C@H](C(=O)N[C@@H](Cc1ccc(O)cc1)C(=O)N[C@H](C(=O)N[C@@H](Cc1cnc[nH]1)C(=O)N1CCC[C@H]1C(=O)N[C@@H](C)C(=O)O)C(C)C)C(C)C [saralasin],nH Ref,AT1 (h),0.9
"CCCN(CCC)C1CCc2cccc(O)c2C1 (centres unmarked) [Compound 8-OH-DPAT, 8-OH-DPAT]",nH Ref,5-HT1A (h),1.2
CC[C@H](NC(=O)c1c(C)c(-c2ccccc2)nc2ccccc12)c1ccccc1 [SB 222200],nH Ref,NK3 (h),1.0
O=C(c1ccc(F)cc1)C1CCN(CCn2c(=O)[nH]c3ccccc3c2=O)CC1 [ketanserin],nH Ref,5-HT2A (h),1.2
CNC(=O)[C@H]1O[C@@H](n2cnc3c(NCc4cccc(I)c4)ncnc32)[C@H](O)[C@@H]1O [IB-MECA],nH Ref,A3 (h),0.7

# Source: PMC4441536 (Journal of Medicinal Chemistry, 2015)
